Results taken from the supplement of paper PMC10627819.

Tests used:
Test in all cases: fitness (endpoint OD595 vs no drug) (fraction); higher = more growth
B. subtilis 168 = test system: B. subtilis 168
Procedure, shortened: (§1)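 Cultures at OD595 0.01 were dispensed into 384-well plates in TSB, LB Lennox or CY and incubated at 37 °C. Every 30 min for 14 h, OD595 was read and corrected by the first reading. Fitness is the optical density at entry into stationary phase relative to the robust mean of no-drug control wells, capped at 1.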

S. aureus Newman = conditions: one replicate
Procedure, shortened: as §1

S. pneumoniae D39V = test system: S. pneumoniae D39V
Procedure, shortened: as §1

O=C(O)[C@H]1/C(=C/CO)O[C@@H]2CC(=O)N21 [Clavulanic acid] + CN[C@@H]1[C@H](O[C@H]2[C@H](O[C@H]3[C@H](O)[C@@H](O)[C@H](N=C(N)N)[C@@H](O)[C@@H]3N=C(N)N)O[C@@H](C)[C@]2(O)C=O)O[C@@H](CO)[C@H](O)[C@H]1O [Streptomycin]
fitness
Conditions | partner 2 µg/mL | partner 4 µg/mL | partner 8 µg/mL
B. subtilis 168, first compound 1.5 µg/mL | 0.963 | – | 0.0564
B. subtilis 168, first compound 3 µg/mL | 0.93 | – | 0.0395
B. subtilis 168, first compound 6 µg/mL | 0.804 | – | 0.0332
S. aureus Newman, first compound 0.03125 µg/mL | 0.945 | 0.937 | 0.753
S. aureus Newman, first compound 0.0625 µg/mL | ≥ 1 | 0.936 | 0.786
S. aureus Newman, first compound 0.125 µg/mL | 0.991 | 0.938 | 0.786
S. pneumoniae D39V, first compound 0.5 µg/mL | 0.955 | 0.929 | 0.901
S. pneumoniae D39V, first compound 1 µg/mL | 0.899 | 0.886 | 0.855
S. pneumoniae D39V, first compound 2 µg/mL | 0.757 | 0.78 | 0.768

S. pneumoniae D39V, partner 16 µg/mL, one replicate
Conditions | fitness
first compound 0.5 µg/mL | 0.761
first compound 1 µg/mL | 0.774
first compound 2 µg/mL | 0.649

O=C(O)[C@H]1/C(=C/CO)O[C@@H]2CC(=O)N21 [Clavulanic acid] + CN[C@H](CC(C)C)C(=O)N[C@H]1C(=O)N[C@@H](CC(N)=O)C(=O)N[C@H]2C(=O)N[C@H]3C(=O)N[C@H](C(=O)N[C@H](C(=O)O)c4cc(O)cc(O)c4-c4cc3ccc4O)[C@H](O)c3ccc(c(Cl)c3)Oc3cc2cc(c3O[C@@H]2O[C@H](CO)[C@@H](O)[C@H](O)[C@H]2O[C@H]2C[C@](C)(N)[C@H](O)[C@H](C)O2)Oc2ccc(cc2Cl)[C@H]1O [Vancomycin]
fitness
Conditions | partner 0.03125 µg/mL | partner 0.0625 µg/mL | partner 0.125 µg/mL | partner 0.1875 µg/mL | partner 0.25 µg/mL | partner 0.375 µg/mL | partner 0.5 µg/mL | partner 0.75 µg/mL
S. aureus Newman, first compound 0.03125 µg/mL | – | – | – | 0.974 | – | 0.975 | – | 0.974
S. aureus Newman, first compound 0.0625 µg/mL | – | – | – | ≥ 1 | – | ≥ 1 | – | ≥ 1
S. aureus Newman, first compound 0.125 µg/mL | – | – | – | 0.936 | – | 0.923 | – | 0.981
S. pneumoniae D39V, first compound 0.5 µg/mL | 0.984 | 0.917 | 0.875 | – | 0.0377 | – | 0.0441 | –
S. pneumoniae D39V, first compound 1 µg/mL | 0.907 | 0.889 | 0.868 | – | 0.189 | – | 0.179 | –
S. pneumoniae D39V, first compound 2 µg/mL | 0.811 | 0.779 | 0.751 | – | 0.0611 | – | 0.078 | –

O=C(O)[C@H]1/C(=C/CO)O[C@@H]2CC(=O)N21 [Clavulanic acid] + CO/N=C(\C(=O)N[C@@H]1C(=O)N2C(C(=O)O)=C(COC(C)=O)CS[C@H]12)c1csc(N)n1 [Cefotaxime]
fitness, B. subtilis 168, one replicate
Conditions | partner 0.00775 µg/mL | partner 0.0155 µg/mL | partner 0.031 µg/mL | partner 0.0625 µg/mL | partner 0.125 µg/mL | partner 0.25 µg/mL
first compound 1.5 µg/mL | 0.759 | 0.65 | 0.525 | 0.486 | 0.286 | 0.225
first compound 3 µg/mL | 0.722 | 0.593 | 0.489 | 0.455 | 0.322 | 0.15
first compound 6 µg/mL | 0.637 | 0.467 | 0.384 | 0.391 | 0.258 | 0.185

Conditions | fitness
B. subtilis 168, first compound 1.5 µg/mL, partner 0.5 µg/mL | 0.232
B. subtilis 168, first compound 1.5 µg/mL, partner 1 µg/mL | 0.154
B. subtilis 168, first compound 1.5 µg/mL, partner 2 µg/mL | 0.0721
B. subtilis 168, first compound 3 µg/mL, partner 0.5 µg/mL | 0.218
B. subtilis 168, first compound 3 µg/mL, partner 1 µg/mL | 0.118
B. subtilis 168, first compound 3 µg/mL, partner 2 µg/mL | 0.0681
B. subtilis 168, first compound 6 µg/mL, partner 0.5 µg/mL | 0.14
B. subtilis 168, first compound 6 µg/mL, partner 1 µg/mL | 0.0836
B. subtilis 168, first compound 6 µg/mL, partner 2 µg/mL | 0.0583
S. aureus Newman, first compound 0.03125 µg/mL, partner 0.078 µg/mL | 0.994
S. aureus Newman, first compound 0.03125 µg/mL, partner 0.156 µg/mL | 0.8
S. aureus Newman, first compound 0.03125 µg/mL, partner 0.312 µg/mL | 0.807
S. aureus Newman, first compound 0.0625 µg/mL, partner 0.078 µg/mL | 0.898
S. aureus Newman, first compound 0.0625 µg/mL, partner 0.156 µg/mL | 0.741
S. aureus Newman, first compound 0.0625 µg/mL, partner 0.312 µg/mL | 0.683
S. aureus Newman, first compound 0.125 µg/mL, partner 0.078 µg/mL | 0.822
S. aureus Newman, first compound 0.125 µg/mL, partner 0.156 µg/mL | 0.703
S. aureus Newman, first compound 0.125 µg/mL, partner 0.312 µg/mL | 0.709
S. pneumoniae D39V, first compound 0.5 µg/mL, partner 0.0018 µg/mL | 0.99
S. pneumoniae D39V, first compound 0.5 µg/mL, partner 0.0035 µg/mL | 0.966
S. pneumoniae D39V, first compound 1 µg/mL, partner 0.0018 µg/mL | 0.971
S. pneumoniae D39V, first compound 1 µg/mL, partner 0.0035 µg/mL | 0.927
S. pneumoniae D39V, first compound 1 µg/mL, partner 0.007 µg/mL | 0.789
S. pneumoniae D39V, first compound 2 µg/mL, partner 0.0018 µg/mL | 0.844
S. pneumoniae D39V, first compound 2 µg/mL, partner 0.0035 µg/mL | 0.824
S. pneumoniae D39V, first compound 2 µg/mL, partner 0.007 µg/mL | 0.582

O=C(O)[C@H]1/C(=C/CO)O[C@@H]2CC(=O)N21 [Clavulanic acid] + CO/N=C(\C(=O)N[C@@H]1C(=O)N2C(C(=O)[O-])=C(C[N+]3(C)CCCC3)CS[C@H]12)c1csc(N)n1 [Cefepime]
fitness
Conditions | partner 0.007 µg/mL | partner 0.0078 µg/mL | partner 0.014 µg/mL | partner 0.0155 µg/mL | partner 0.028 µg/mL | partner 0.031 µg/mL | partner 0.125 µg/mL | partner 0.25 µg/mL | partner 0.5 µg/mL
S. aureus Newman, first compound 0.03125 µg/mL | – | – | – | – | – | – | 0.965 | 0.943 | 0.946
S. aureus Newman, first compound 0.0625 µg/mL | – | – | – | – | – | – | 0.94 | 0.914 | 0.871
S. aureus Newman, first compound 0.125 µg/mL | – | – | – | – | – | – | 0.881 | 0.884 | 0.869
S. pneumoniae D39V, first compound 0.5 µg/mL | 0.996 | 0.997 | 0.997 | 0.957 | 0.885 | 0.501 | – | – | –
S. pneumoniae D39V, first compound 1 µg/mL | 0.991 | 0.955 | 0.988 | 0.91 | 0.817 | 0.456 | – | – | –
S. pneumoniae D39V, first compound 2 µg/mL | 0.902 | 0.778 | 0.904 | 0.681 | 0.633 | 0.199 | – | – | –

O=C(O)[C@H]1/C(=C/CO)O[C@@H]2CC(=O)N21 [Clavulanic acid] + CO[C@@]12[C@H](COC(N)=O)C3=C(C(=O)C(C)=C(N)C3=O)N1C[C@@H]1N[C@@H]12 [Mitomycin C]
fitness
Conditions | partner 0.001075 µg/mL | partner 0.00215 µg/mL | partner 0.004 µg/mL | partner 0.0043 µg/mL | partner 0.008 µg/mL | partner 0.0156 µg/mL | partner 0.0312 µg/mL | partner 0.0625 µg/mL
S. aureus Newman, first compound 0.03125 µg/mL | – | – | – | – | – | 0.757 | 0.549 | 0.48
S. aureus Newman, first compound 0.0625 µg/mL | – | – | – | – | – | 0.748 | 0.568 | 0.495
S. aureus Newman, first compound 0.125 µg/mL | – | – | – | – | – | 0.721 | 0.601 | 0.51
S. pneumoniae D39V, first compound 0.5 µg/mL | 0.951 | 0.885 | 0.642 | 0.772 | 0.324 | – | – | –
S. pneumoniae D39V, first compound 1 µg/mL | 0.896 | 0.873 | 0.586 | 0.766 | 0.369 | – | – | –
S. pneumoniae D39V, first compound 2 µg/mL | 0.838 | 0.791 | 0.385 | 0.696 | 0.201 | – | – | –

O=C(O)[C@H]1/C(=C/CO)O[C@@H]2CC(=O)N21 [Clavulanic acid] + COc1c(N2C[C@@H]3CCCN[C@@H]3C2)c(F)cc2c(=O)c(C(=O)O)cn(C3CC3)c12 [Moxifloxacin]
Conditions | fitness
B. subtilis 168, first compound 1.5 µg/mL, partner 0.0312 µg/mL | 0.0422
B. subtilis 168, first compound 1.5 µg/mL, partner 0.0625 µg/mL | 0.0379
B. subtilis 168, first compound 1.5 µg/mL, partner 0.125 µg/mL | 0.0596
B. subtilis 168, first compound 1.5 µg/mL, partner 2 µg/mL | 0.0304
B. subtilis 168, first compound 1.5 µg/mL, partner 4 µg/mL | 0.0307
B. subtilis 168, first compound 1.5 µg/mL, partner 8 µg/mL | 0.0071
B. subtilis 168, first compound 3 µg/mL, partner 0.0312 µg/mL | 0.0399
B. subtilis 168, first compound 3 µg/mL, partner 0.0625 µg/mL | 0.0399
B. subtilis 168, first compound 3 µg/mL, partner 0.125 µg/mL | 0.0536
B. subtilis 168, first compound 3 µg/mL, partner 2 µg/mL | 0.0289
B. subtilis 168, first compound 3 µg/mL, partner 4 µg/mL | 0.0394
B. subtilis 168, first compound 3 µg/mL, partner 8 µg/mL | 0.0171
B. subtilis 168, first compound 6 µg/mL, partner 0.0312 µg/mL | 0.0317
B. subtilis 168, first compound 6 µg/mL, partner 0.0625 µg/mL | 0.0196
B. subtilis 168, first compound 6 µg/mL, partner 0.125 µg/mL | 0.0562
B. subtilis 168, first compound 6 µg/mL, partner 2 µg/mL | 0.0285
B. subtilis 168, first compound 6 µg/mL, partner 4 µg/mL | 0.0252
B. subtilis 168, first compound 6 µg/mL, partner 8 µg/mL | 0.0156
S. aureus Newman, first compound 0.03125 µg/mL, partner 0.0075 µg/mL | 0.823
S. aureus Newman, first compound 0.03125 µg/mL, partner 0.015 µg/mL | 0.742
S. aureus Newman, first compound 0.03125 µg/mL, partner 0.03 µg/mL | 0.393
S. aureus Newman, first compound 0.0625 µg/mL, partner 0.0075 µg/mL | 0.786
S. aureus Newman, first compound 0.0625 µg/mL, partner 0.015 µg/mL | 0.693
S. aureus Newman, first compound 0.0625 µg/mL, partner 0.03 µg/mL | 0.312
S. aureus Newman, first compound 0.125 µg/mL, partner 0.0075 µg/mL | 0.779
S. aureus Newman, first compound 0.125 µg/mL, partner 0.015 µg/mL | 0.699
S. aureus Newman, first compound 0.125 µg/mL, partner 0.03 µg/mL | 0.417
S. pneumoniae D39V, first compound 0.5 µg/mL, partner 0.005 µg/mL | 0.952
S. pneumoniae D39V, first compound 0.5 µg/mL, partner 0.01 µg/mL | 0.982
S. pneumoniae D39V, first compound 0.5 µg/mL, partner 0.02 µg/mL | 0.896
S. pneumoniae D39V, first compound 0.5 µg/mL, partner 0.0312 µg/mL | 0.0616
S. pneumoniae D39V, first compound 0.5 µg/mL, partner 0.0625 µg/mL | 0.0525
S. pneumoniae D39V, first compound 0.5 µg/mL, partner 0.125 µg/mL | 0.0269
S. pneumoniae D39V, first compound 1 µg/mL, partner 0.005 µg/mL | 0.94
S. pneumoniae D39V, first compound 1 µg/mL, partner 0.01 µg/mL | 0.964
S. pneumoniae D39V, first compound 1 µg/mL, partner 0.02 µg/mL | 0.908
S. pneumoniae D39V, first compound 1 µg/mL, partner 0.0312 µg/mL | 0.198
S. pneumoniae D39V, first compound 1 µg/mL, partner 0.0625 µg/mL | 0.173
S. pneumoniae D39V, first compound 1 µg/mL, partner 0.125 µg/mL | 0.189
S. pneumoniae D39V, first compound 2 µg/mL, partner 0.005 µg/mL | 0.891
S. pneumoniae D39V, first compound 2 µg/mL, partner 0.01 µg/mL | 0.939
S. pneumoniae D39V, first compound 2 µg/mL, partner 0.02 µg/mL | 0.844
S. pneumoniae D39V, first compound 2 µg/mL, partner 0.0312 µg/mL | 0.0371
S. pneumoniae D39V, first compound 2 µg/mL, partner 0.0625 µg/mL | 0.0368
S. pneumoniae D39V, first compound 2 µg/mL, partner 0.125 µg/mL | 0.0371
